PMC11635053, “Development of a homotrimeric PSMA radioligand based on the NOTI chelating platform” (EJNMMI Radiopharmacy and Chemistry, 2024)
Read-outs that look alike come from different tables or passages of the source.

Experiments:
PSMA = target: T1, PSMA (Homo sapiens, UniProt Q04609); experiment: Competitive binding assay in LNCaP cells with [177Lu]Lu-PSMA-617 as radioligand; conditions: for IC50: LNCaP cells, radioligand [177Lu]Lu-PSMA-617, 2 h at r.t., read-out: IC50 (half maximum competitive inhibitory concentration)
T1 construct: host or cells: LNCaP
T1 sequence (Q04609 whole entry): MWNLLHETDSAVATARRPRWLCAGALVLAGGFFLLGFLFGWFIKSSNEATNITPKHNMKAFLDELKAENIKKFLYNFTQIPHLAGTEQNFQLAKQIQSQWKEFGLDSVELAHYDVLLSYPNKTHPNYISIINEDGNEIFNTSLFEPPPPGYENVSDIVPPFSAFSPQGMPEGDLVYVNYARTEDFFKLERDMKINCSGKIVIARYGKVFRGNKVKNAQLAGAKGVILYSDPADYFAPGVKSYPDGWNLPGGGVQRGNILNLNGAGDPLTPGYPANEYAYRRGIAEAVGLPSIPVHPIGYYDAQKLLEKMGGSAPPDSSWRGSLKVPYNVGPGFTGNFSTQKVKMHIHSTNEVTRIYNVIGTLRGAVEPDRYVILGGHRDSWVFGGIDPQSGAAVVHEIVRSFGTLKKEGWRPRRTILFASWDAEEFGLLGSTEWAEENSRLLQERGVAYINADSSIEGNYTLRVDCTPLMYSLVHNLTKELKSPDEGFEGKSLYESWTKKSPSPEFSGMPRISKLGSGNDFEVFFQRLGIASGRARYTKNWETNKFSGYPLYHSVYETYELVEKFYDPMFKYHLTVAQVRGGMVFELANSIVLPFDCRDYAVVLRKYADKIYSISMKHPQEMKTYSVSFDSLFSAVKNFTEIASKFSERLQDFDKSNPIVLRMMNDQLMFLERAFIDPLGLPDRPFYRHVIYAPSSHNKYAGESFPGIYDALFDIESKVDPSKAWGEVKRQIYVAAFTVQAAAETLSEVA
Procedure: In order to establish a structure–activity relationship, the binding affinity of the metal-free and ^natGa-complexes of the conjugates 7, 8, and 9 were determined in the PSMA-positive human prostate cancer cell line LNCaP by a competitive binding assay as previously reported using [^177Lu]Lu-PSMA-617 as the radioligand (Stemler et al. [2021]). The conjugate Glu-CO-Lys-Ahx-HBED-CC (PSMA-11) was included as the control.
The competitive binding assay was carried out using a MultiScreen®HTS Vacuum Manifold system (Merck, Germany) with 96-well filter plates. Serial dilutions of the metal-free conjugates and corresponding ^natGa complexes were prepared to obtain 7 final concentrations ranging from 0 to 1000 nM for each compound. PSMA-11 was also tested as control. Experiments were performed twice in triplicate for each compound. Freshly prepared ^177Lu-labeled PSMA-617 was used as the radioligand. A volume of 1 μL of [^177Lu]Lu-PSMA-617 stock solution (2.83 μM) was added into each tube of the dilution series (radioligand concentration 3.14 nM). For the experiment, 10^5 LNCaP cells were seeded into each well. The final volume of each well was 150 μL (100 μL cells in medium + 50 μL inhibitor in PBS). The experiment was incubated for 2 h at r.t. in a plate shaker. Then, the supernatants were removed by vacuum. Wells were furthermore washed out with ice-cold PBS (3 × 200 μL, pH 7.4). The filters were punched into tubes for the subsequent quantification of the activity in a Gamma-counter. A nonlinear regression algorithm was applied by the software GraphPad Prism to determine the specific inhibitory concentrations of 50% for the tested radiotracers.

[1] = system: patient with metastatic prostate cancer; experiment: Clinical PET/CT imaging; conditions: patient, 1 h p.i.
Procedure: PET/CT was performed approximately 1, 2, and 3 h after intravenous injection of 107 MBq of [^68Ga]Ga-9 and 1 h after injection of 113 MBq [^68Ga]Ga-PSMA-11 in a patient with metastatic prostate cancer. Whole body imaging extending from vertex to mid-femur was performed in 3D-ToF mode on a Biograph mCT 40 scanner (Siemens Medical Solutions, Knoxville, TN, USA) with an extended field of view of 21.4 cm. PET acquisition time was 3 min bed position^−1. Low-dose CT acquisition was performed for attenuation correction and anatomical localization using an X-ray tube voltage of 120 kV and a modulation of the tube current (maximal tube current: 30 mA; CARE Dose 4D software Siemens Healthineers, Erlangen, Germany) followed by reconstruction with a soft tissue reconstruction kernel (Bf37) to a slice thickness of 5 mm (increment 2–4 mm). PET emission data were additionally corrected for decay, randoms and scatter and reconstructed applying an iterative 3D ordered subset expectation maximization algorithm (3 iterations; 21 subsets) withGaussian filtering to transaxial resolution of 5 mm at full width at half maximum. The matrix size was 200 × 200 mm and the reconstructed pixel size was 5.0 mm.

[2] = system: PSMA-positive LNCaP cells; experiment: Cell uptake / internalization of 68Ga-labeled conjugates in LNCaP cells; format: cell-based, human; conditions: 1 h incubation; for Cell uptake: in words
Procedure: Next, the cellular uptake of the ^68Ga-labeled conjugates 7, 8, and 9 as well as [^68Ga]Ga-PSMA-11 was determined in PSMA-positive LNCaP cells.
LNCaP cells were seeded (10^6 cells well^−1) in poly-L-lysine coated 6-well plates 24 h before the experiment. Experiments were performed twice in triplicate for each compound. The radiolabeling solutions of [^68Ga]Ga-7, [^68Ga]Ga-8, [^68Ga]Ga-9, and [^68Ga]Ga-PSMA-11 were first diluted with PBS (pH 7.4) to a concentration of […]. 100 µL of this dilution were added to 3900 µL PBS (pH 7.4) to obtain final stock solutions of each radiolabeled compound (0.025 nmol mL^−1).
On the day of the experiment, the medium was replaced by fresh preheated medium (1.4 mL w/o blocking, 1.3 mL with blocking) and the cells incubated for 1 h at 37 °C. Next, the blocking solution was added (100 μL, 2500 pmol) to the corresponding wells. Finally, the corresponding radiolabeled conjugate (100 μL, 2.5 pmol) was added to a final assay volume of 1.5 mL well^−1. After 1 h incubation time, the supernatants were removed and the cells were washed carefully with ice-cold PBS buffer (2 × 1 mL, pH 7.4) followed by a subsequent glycine–HCl washing step (50 mM, pH 2.8, 2 × 1 mL well^−1). Cells were incubated with the glycine–HCl solution for 4 min at r.t. Next, corresponding fractions were transferred into counting tubes. Subsequently, the cells were lysed by adding NaOH (2 × 1 mL well^−1, 0.1 M) and the lysed fractions were also transferred into counting tubes. As standards, 100 µL of each radiolabeled conjugate stock solution (0.025 nmol mL^−1, 2.5 pmol) were pipetted into counting tubes containing 2 mL PBS buffer. The activity of the standards, the surface bound fractions and the internalized fractions were measured in a Gamma counter. Means were calculated and subtracted by the background. The percentages of unspecific and specific cell-surface bound and internalized activity were calculated from the standards.

[3] = system: LNCaP xenograft bearing mice; conditions: 1 h p.i., cited from earlier work
human serum proteins = experiment: in vitro; format: in vitro ADME; conditions: male; for Protein binding: 1 h; for fraction unbound at 1 h: Protein binding
Procedure: To determine the protein bound fraction of each trimeric radiotracer, 100 μL of the radiolabeling solution of the corresponding ^68Ga-labeled conjugate were added to preheated (37 °C) 1000 μL human serum (male, AB, Sigma Aldrich, USA) in triplicates. Samples were incubated for 1 h at 37 °C. After cooling to r.t., the samples were centrifuged utilizing molecular cutoff (30 kDa) centrifuge tubes at 4 G for 5 min at 4 °C. The filters were additionally rinsed with PBS buffer (2 × 100 μL). The background subtracted activity in the filters and the filtrates were determined in a Gamma counter and the percentage of protein bound fractions were calculated.

[4] = format: in vitro ADME; conditions: 2 h
Procedure: 100 μL of the radiolabeling solution of each ^68Ga-labeled tracer were added to preheated (37 °C) 1000 μL human serum (male, AB, Sigma Aldrich, USA) in triplicates and incubated at 37 °C. At 1 and 2 h, 100 µL aliquots were taken, mixed with 100 µL ice-cold acetonitrile, and centrifuged at 4 G for 5 min at 4 °C. The corresponding filtrates were kept on ice until HPLC analysis. The supernatants were then analyzed by radio-RP-HPLC and fractions of intact compounds were calculated from the HPLC chromatograms. (gradient 4,Gamma-ray detector: 100–900 keV, injection volume: 20 μl). tR ([^68Ga]Ga-7) = 12.1 min, tR ([^68Ga]Ga-8) = 14.4 min, tR ([^68Ga]Ga-9) = 25.2 min.

patients = conditions: cited from earlier work; for Injected activity excreted: patients, ref Kurth et al. [2018]
[5] = lesions listed as 1 × prostate, 2 × lymph node metastasis
[6] = 2.5 pmol per 10^6 cells, 68Ga-labeled

O=C(O)CC[C@H](NC(=O)N[C@@H](CCCCNC(=O)CCCCCNC(=O)CCCCn1ccnc1CN1CCN(Cc2nccn2CCCCC(=O)NCCCCCC(=O)NCCCC[C@H](NC(=O)N[C@@H](CCC(=O)O)C(=O)O)C(=O)O)CCN(Cc2nccn2CCCCC(=O)NCCCCCC(=O)NCCCC[C@H](NC(=O)N[C@@H](CCC(=O)O)C(=O)O)C(=O)O)CC1)C(=O)O)C(=O)O [Compound 8, (3S,3'S,3''S,7S,7'S,7''S)−24,24',24''-(((1,4,7-triazonane-1,4,7-triyl)tris(methylene))tris(1H-imidazole-2,1-diyl))tris(5,13,20-trioxo-4,6,12,19-tetraazatetracosane-1,3,7-tricarboxylic acid)]
IC50 (PSMA): 65 nM
Factor by which affinity is lower compared to PSMA-11 (PSMA; LNCaP competitive binding, metal-free conjugate): ~ 3

O=C([O-])CN(CCN(CC(=O)[O-])Cc1cc(CCC(=O)NCCCCCC(=O)NCCCC[C@H](NC(=O)N[C@@H](CCC(=O)O)C(=O)O)C(=O)O)ccc1[O-])Cc1cc(CCC(=O)O)ccc1[O-].[68Ga+3].[OH3+] [[^68Ga]Ga-PSMA-11, reference compound]
SUVpeak in the parotid gland [1]: 37.0
SUVpeak in the submandibular gland [1]: 31.6
SUVpeak kidneys [1]: 126.3
SUVpeak liver [1]: 8.5
SUVpeak, first target lesion [1, 5]: 35.3
SUVpeak, second target lesion [1, 5]: 16.3
SUVpeak, third target lesion [1, 5]: 20.6
Cell internalization [2, 6]: 5.2 ± 0.2%
Cell-surface bound fraction [2, 6]: 4.5 ± 0.2%
Kidney uptake ([3]; ref Benešová et al. ([2015])): 187.4 ± 25.3 % IA g^−1
Tumor uptake ([3]; ref Benešová et al. ([2015])): 10.58 ± 4.5 % IA g^−1
Tumor-to-kidney ratio ([3]; ref Benešová et al. ([2015])): 0.06
Kidney uptake ([3]; ref Eder et al. ([2012])): 139.4 ± 21.4 % IA g^−1
Liver uptake ([3]; ref Eder et al. ([2012])): 0.87 ± 0.05 % IA g^−1
Tumor uptake ([3]; ref Eder et al. ([2012])): 7.70 ± 1.45 % IA g^−1
Tumor-to-kidney ratio ([3]; ref Eder et al. ([2012])): 0.06
Tumor-to-liver ratio ([3]; ref Eder et al. ([2012])): 8.85

O=C(O)CCc1ccc(O)c(CN(CCN(CC(=O)O)Cc2cc(CCC(=O)NCCCCCC(=O)NCCCC[C@H](NC(=O)N[C@@H](CCC(=O)O)C(=O)O)C(=O)O)ccc2O)CC(=O)O)c1 [PSMA-11, Glu-CO-Lys-Ahx-HBED-CC, reference compound]
IC50 (PSMA): 18.5 nM

O=C(O)CC[C@H](NC(=O)N[C@@H](CCCCNC(=O)CCCCn1ccnc1CN1CCN(Cc2nccn2CCCCC(=O)NCCCC[C@H](NC(=O)N[C@@H](CCC(=O)O)C(=O)O)C(=O)O)CCN(Cc2nccn2CCCCC(=O)NCCCC[C@H](NC(=O)N[C@@H](CCC(=O)O)C(=O)O)C(=O)O)CC1)C(=O)O)C(=O)O [^nat/68Ga-7, metal not drawn]
Protein binding (human serum proteins): 63.8 ± 4.0%
fraction unbound at 1 h (human serum proteins): ~0.36
IC50 (PSMA): 450 nM
Cell uptake [2]: negligible
Metabolic stability in human serum [4]: no significant degradation

O=C(O)CC[C@H](NC(=O)N[C@@H](CCCCNC(=O)CCCCn1ccnc1CN1CCN(Cc2nccn2CCCCC(=O)NCCCC[C@H](NC(=O)N[C@@H](CCC(=O)O)C(=O)O)C(=O)O)CCN(Cc2nccn2CCCCC(=O)NCCCC[C@H](NC(=O)N[C@@H](CCC(=O)O)C(=O)O)C(=O)O)CC1)C(=O)O)C(=O)O [Compound 7, (2S,2'S,2''S)−2,2',2''-(((((1S,1'S,1''S)-((5,5',5''-(((1,4,7-triazonane-1,4,7-triyl)tris(methylene))tris(1H-imidazole-2,1-diyl))tris(pentanoyl))tris(azanediyl))tris(1-carboxypentane-5,1-diyl))tris(azanediyl))tris(carbonyl))tris(azanediyl))triglutaric acid]
IC50 (PSMA): 264 nM

[^177Lu]Lu-PSMA-617
Patients that may not respond to therapy (patients; PSMA targeted radioligand therapy, ref Kratochwil et al. [2016]): more than 30%
Injected activity excreted (patients; by 12 h): ~70%
Injected activity excreted (patients; within 4 h of administration): 50%
Kidney uptake ([3]; ref Benešová et al. ([2015])): 137.2 ± 77.8 % IA g^−1
Liver uptake ([3]; ref Benešová et al. ([2015])): 0.22 ± 0.08 % IA g^−1
Tumor uptake ([3]; ref Benešová et al. ([2015])): 11.20 ± 4.17 % IA g^−1
Tumor-to-kidney ratio ([3]; ref Benešová et al. ([2015])): 0.08
Tumor-to-liver ratio ([3]; ref Benešová et al. ([2015])): 50.91

O=C(O)CC[C@H](NC(=O)N[C@@H](CCCCNC(=O)[C@H](Cc1ccc2ccccc2c1)NC(=O)[C@H]1CC[C@H](CNC(=O)CCCCn2ccnc2CN2CCN(Cc3nccn3CCCCC(=O)NC[C@H]3CC[C@H](C(=O)N[C@@H](Cc4ccc5ccccc5c4)C(=O)NCCCC[C@H](NC(=O)N[C@@H](CCC(=O)O)C(=O)O)C(=O)O)CC3)CCN(Cc3nccn3CCCCC(=O)NC[C@H]3CC[C@H](C(=O)N[C@@H](Cc4ccc5ccccc5c4)C(=O)NCCCC[C@H](NC(=O)N[C@@H](CCC(=O)O)C(=O)O)C(=O)O)CC3)CC2)CC1)C(=O)O)C(=O)O [Compound 9]
IC50 (PSMA): 5.9 nM
Cell internalization [2, 6]: 17.8 ± 2.5%

O=C(O)CC[C@H](NC(=O)N[C@@H](CCCCNC(=O)CCCCCNC(=O)CCCCn1ccnc1CN1CCN(Cc2nccn2CCCCC(=O)NCCCCCC(=O)NCCCC[C@H](NC(=O)N[C@@H](CCC(=O)O)C(=O)O)C(=O)O)CCN(Cc2nccn2CCCCC(=O)NCCCCCC(=O)NCCCC[C@H](NC(=O)N[C@@H](CCC(=O)O)C(=O)O)C(=O)O)CC1)C(=O)O)C(=O)O [^nat/68Ga-8, metal not drawn]
Protein binding (human serum proteins): 68.2 ± 1.5%
fraction unbound at 1 h (human serum proteins): ~0.35
IC50 (PSMA): 90 nM
Cell internalization [2, 6]: 0.08 ± 0.02%
Cell uptake [2]: negligible
Metabolic stability in human serum [4]: no significant degradation
